Test results taken from EPA's ToxRefDB 2.

Experiments:
rat [1] = conditions: Developmental neurotoxicity study, other, Oral, Gavage/Intubation, dose end: 140 PND, group: cannot be grouped
rabbit = conditions: Prenatal developmental toxicity study, new zealand white, Oral, Gavage/Intubation, dose end: 19 GD
rat [2] = conditions: Prenatal developmental toxicity study, sprague dawley, Oral, Gavage/Intubation, dose end: 17 GD
rat [3] = conditions: Prenatal developmental toxicity study, sprague dawley, Oral, Gavage/Intubation, dose end: 15 GD
rat [4] = conditions: Subchronic oral toxicity in rodents, sprague dawley, Feed, dose end: 90 day, group: systemic
mouse [5] = conditions: Carcinogenicity; other; Oral; Feed; group: systemic; systemic / hematology / anemia / anemia - nos + systemic / pathology microscopic / bone marrow / hemosiderosis + systemic / pathology …
dog [6] = conditions: Chronic toxicity; beagle; Oral; Capsule; dose end: 52 week; group: systemic; systemic / hematology / anemia / anemia - hemolytic + systemic / hematology / erythrocyte (rbc) count differential / erythrocyte (rbc) + …
mouse [7] = conditions: Subchronic oral toxicity in rodents, Feed, dose end: 3 month, group: systemic
rat [8] = conditions: Combined chronic toxicity/carcinogenicity, sprague dawley, Oral, Feed, dose end: 24 month, group: systemic
rat [9] = conditions: Multigenerational reproductive toxicity study, other, Oral, Feed, dose end: 2 generation
dog [10] = conditions: Subchronic oral toxicity in nonrodent, beagle, Capsule, dose end: 13 week, group: systemic
rat [11] = conditions: Subchronic oral toxicity in rodents, sprague dawley, Feed, dose end: 13 week, group: systemic, systemic / clinical chemistry / cholesterol / cholesterol + systemic / clinical chemistry / globulins / globulins + systemic / clinical …
rat [12] = conditions: Sub-acute repeat dose toxicity; sprague dawley; Oral; Feed; dose end: 28 day; group: systemic; systemic / clinical chemistry / cholesterol / cholesterol + systemic / clinical chemistry / triglycerides / triglycerides + systemic / …
rat [13] = conditions: Sub-acute repeat dose toxicity; sprague dawley; Injection; Subcutaneous; dose end: 5 day; group: systemic; systemic / in life observation / clinical signs / erythema + systemic / in life observation / clinical signs / scabbing + systemic / in life…
[14] = reproductive / offspring survival early / birth index / birth index + reproductive / reproductive performance / gestational length / …
[15] = systemic / in life observation / body weight / offspring (pup) weight + systemic / organ weight / thymus / relative to body weight
[16] = group: developmental, developmental / developmental malformation / heart / atrial septum defect
[17] = group: maternal, systemic / in life observation / body weight / body weight gain + systemic / in life observation / food consumption / food consumption
[18] = group: developmental, developmental / developmental malformation / bone / wavy + developmental / developmental malformation / kidney / [other] + developmental / …
[19] = group: maternal, reproductive / reproductive performance / resorptions / resorptions + systemic / in life observation / body weight / body weight gain + …
[20] = group: developmental, developmental / developmental malformation / trunk / umbilical hernia
[21] = group: maternal, systemic / in life observation / clinical signs / hemorrhagic perineal discharge
[22] = group: maternal, systemic / in life observation / clinical signs / hemorrhagic perineal discharge + reproductive / reproductive performance / …
[23] = systemic / in life observation / body weight / body weight + systemic / in life observation / food consumption / food consumption + systemic…
[24] = systemic / organ weight / spleen / relative to body weight
[25] = systemic / organ weight / spleen / relative to body weight + systemic / pathology microscopic / spleen / hemosiderosis + systemic / in life …
[26] = systemic / hematology / anemia / anemia - hemolytic + systemic / in life observation / body weight / body weight + systemic / in life …
[27] = systemic / in life observation / clinical signs / alopecia
[28] = group: offspring, systemic / in life observation / body weight / offspring (pup) weight + systemic / in life observation / body weight / offspring (pup) …
[29] = group: parental, systemic / organ weight / spleen / absolute + systemic / organ weight / spleen / relative to body weight + systemic / pathology microscopic…
[30] = group: parental, systemic / organ weight / spleen / relative to body weight
[31] = systemic / hematology / anemia / anemia - hemolytic + systemic / hematology / erythrocyte (rbc) count differential / erythrocyte (rbc) + …

`Cl.O=C(c1ccc(OCCN2CCCCC2)cc1)c1c(-c2ccc(O)cc2)sc2cc(O)ccc12` [Raloxifene hydrochloride] showed an LOAEL (rat [1]; [14]) greater than 10 mg/kg/day, an NOAEL (rat [1]; [14]) of no less than 10 mg/kg/day and an LEL (rat [1]; [15]) of 0.1 mg/kg/day. The NEL (rat [1]; [15]) was less than 0.1 mg/kg/day, the LEL (rabbit; [16]) was 0.1 mg/kg/day and the LOAEL (rabbit; [16]) was greater than 10 mg/kg/day. It also gave an NEL (rabbit; [16]) of less than 0.1 mg/kg/day, an NOAEL (rabbit; [16]) of no less than 10 mg/kg/day and an LEL (rabbit; [17]) of 10 mg/kg/day. It also gave an LOAEL (rabbit; [17]) greater than 10 mg/kg/day, an NEL (rabbit; [17]) of 1 mg/kg/day and an NOAEL (rabbit; [17]) of no less than 10 mg/kg/day. It also gave an LEL (rat [2]; group: developmental, developmental / developmental malformation / bone / wavy + developmental / developmental malformation / kidney / [other]) of 1 mg/kg/day, an LOAEL (rat [2]; [18]) greater than 10 mg/kg/day and an NEL (rat [2]; [18]) of 0.1 mg/kg/day. For the same molecule, the NOAEL (rat [2]; [18]) was no less than 10 mg/kg/day, the LOAEL (rat [2]; [19]) was greater than 10 mg/kg/day and the NOAEL (rat [2]; [19]) was no less than 10 mg/kg/day. It also gave an LEL (rat [2]; [17]) of 0.1 mg/kg/day and an NEL (rat [2]; [17]) of less than 0.1 mg/kg/day.

`CSC(=O)c1cccc2nnsc12` [Acibenzolar-S-methyl] showed an LEL (rat [3]; [20]) of 10 mg/kg/day, an LOAEL (rat [3]; [20]) of 10 mg/kg/day and an NEL (rat [3]; [20]) of less than 10 mg/kg/day. The NOAEL (rat [3]; [20]) was less than 10 mg/kg/day, the LEL (rat [3]; [21]) was 50 mg/kg/day and the LOAEL (rat [3]; [21]) was 400 mg/kg/day. It also gave an NEL (rat [3]; [22]) of 10 mg/kg/day, an NOAEL (rat [3]; [22]) of 200 mg/kg/day and an LEL (rat [4]; systemic / clinical chemistry / sodium / sodium) of 126 mg/kg/day. The LOAEL (rat [4]; [23]) was 516 mg/kg/day, the NEL (rat [4]; [23]) was 24.6 mg/kg/day and the NOAEL (rat [4]; [23]) was 126 mg/kg/day. For the same molecule, the LEL (mouse [5]) was 234 mg/kg/day, the LOAEL (mouse [5]) was 234 mg/kg/day and the NEL (mouse [5]) was 10.8 mg/kg/day. The NOAEL (mouse [5]) was 10.8 mg/kg/day, the LEL (dog [6]) was 200 mg/kg/day and the LOAEL (dog [6]) was 200 mg/kg/day. For the same molecule, the NEL (dog [6]) was 25 mg/kg/day, the NOAEL (dog [6]) was 25 mg/kg/day and the LEL (mouse [7]; [24]) was 47.4 mg/kg/day. It also gave an NEL (mouse [7]; [24]) of less than 47.4 mg/kg/day, an LOAEL (mouse [7]; [25]) of 152 mg/kg/day and an NOAEL (mouse [7]; [25]) of 30.6 mg/kg/day. The LOAEL (rat [8]; [26]) was 312 mg/kg/day, the NOAEL (rat [8]; [26]) was 96.9 mg/kg/day and the LEL (rat [8]; [27]) was 0.9 mg/kg/day. The NEL (rat [8]; [27]) was less than 0.9 mg/kg/day, the LEL (rat [9]; [28]) was 100 mg/kg/day and the LOAEL (rat [9]; [28]) was 100 mg/kg/day. For the same molecule, the NEL (rat [9]; [28]) was 10 mg/kg/day, the NOAEL (rat [9]; [28]) was 10 mg/kg/day and the LOAEL (rat [9]; [29]) was 100 mg/kg/day. For the same molecule, the NOAEL (rat [9]; [29]) was 10 mg/kg/day, the LEL (rat [9]; [30]) was 1 mg/kg/day and the NEL (rat [9]; [30]) was less than 1 mg/kg/day. It also gave an LOAEL (dog [10]; [31]) of 200 mg/kg/day, an NEL (dog [10]; [31]) of 10 mg/kg/day and an NOAEL (dog [10]; [31]) of 50 mg/kg/day. For the same molecule, the LEL (dog [10]; systemic / organ weight / liver / absolute + systemic / organ weight / liver / relative to body weight) was 50 mg/kg/day.

Work on `O=B[O-].O=B[O-].[Ba+2]` [Barium metaborate] yielded an LEL (rat [11]) of 349 mg/kg/day, an LOAEL (rat [11]) of 349 mg/kg/day and an NEL (rat [11]) of 70 mg/kg/day. For the same molecule, the NOAEL (rat [11]) was 70 mg/kg/day, the LEL (rat [12]) was 881 mg/kg/day and the LOAEL (rat [12]) was 881 mg/kg/day. For the same molecule, the NEL (rat [12]) was 459 mg/kg/day and the NOAEL (rat [12]) was 459 mg/kg/day.

With `COCc1nnc(-c2ccc[n+]([O-])c2)n1-c1c(Cl)c(Cl)cc2[nH]c(=O)c(=O)[nH]c12` the LEL (rat [13]) was 20 mg/kg/day, the LOAEL (rat [13]) was greater than 20 mg/kg/day and the NEL (rat [13]) was less than 20 mg/kg/day. It also gave an NOAEL (rat [13]) of no less than 20 mg/kg/day.
